Where a name gives a salt, the structure may show the parent alone.
Columns and labels:
[1] = tested on: maximal electroshock-induced seizures (MES); assay: Maximum electroshock seizure test (MES), oral administration to mice; type: in vivo; details: Mus musculus, po, 30 minutes before the test, dose protecting 50% of animals
Text: The compounds of the present invention may be tested for in vivo anticonvulsant activity after i.v., p.o. or i.p. injection using a number of anticonvulsant tests in mice, including the maximum electroshock seizure test (MES). Maximum electroshock seizures were induced in male NSA mice weighing between 15-20 g and male Sprague-Dawley rats weighing between 200-225 g by application of current (50 mA, 60 pulses/sec, 0.8 msec pulse width, 1 sec duration, D.C., mice; 99 mA, 125 pulses/sec, 0.8 msec pulse width, 2 sec duration, D.C., rats) using a Ugo Basile ECT device (Model 7801). Mice were restrained by gripping the loose skin on their dorsal surface and saline-coated corneal electrodes were held lightly against the two corneae. Rats were allowed free movement on the bench top and ear-clip electrodes were used. […] A tonic seizure was defined as a hindlimb extension in excess of 90 degrees from the plane of the body. Results were treated in a quantal manner.
The ability of 3-[4-(2,4-difluorophenoxy)phenyl]-1H-pyrazole-1-carboxamide to block maximal electroshock-induced seizures (MES) was determined as described earlier.
3-[4-(2,4-Difluorophenoxy)phenyl]-1H-pyrazole-1-carboxamide was administered p.o. to mice 30 minutes before the test procedure.
The following compounds in Table 1 were tested in MES as described for 3-[4-(2,4-difluorophenoxy)phenyl]-1H-pyrazole-1-carboxamide: […]

[2] = target: rBIIA isoform of Na+ channels (Rattus norvegicus, UniProt P04775); assay: Electrophysiological Assay 2: whole-cell patch-clamp of Na+ currents in HEK-293 cells expressing rBIIA; type: cell-based; details: HEK-293 cells stably expressing rBIIA; concentration that produces half maximal inhibition
Method: Cell preparation: HEK-293 (NaIIA-B2) cell line stably expressing the rBIIA isoform of Na^+ channels was established in-house. The cells were cultured using standard techniques, as described previously (Verdoorn, T. A, et al., Neuron 4:919-928 (1990)). For electrophysiology, cells were plated onto poly-D-lysine pre-coated Cellware 35 mm Petri dishes (BIOCOAT, Becton Dickinson) at a density of ˜10^4 cells/dish on the day of re-seeding from confluent cultures. Our experience has been that cells are suitable for recordings for 2-3 days after plating.
Patch-clamp recordings of voltage-sensitive Na^+ currents. Whole-cell voltage-clamp recordings were made using conventional patch-clamp techniques (Hamill et al., Pfluegers Arch. 391:85-100 (1981)) with an Axopatch 200A amplifier (Axon Instruments, Foster City, Calif.). The recording chamber was continuously superfused with the external solution (150 mM NaCl, 5.4 mM KCl, 1.8 mM CaCl2, 1 mM MgCl2, 10 mM HEPES, 10 mM glucose, pH7.4 adjusted with NaOH, osmolality ˜320 mmol/kg) at a speed of about 1 mL/min. Recording pipettes were pulled from the thick-walled capillaries (WPI, Sarasota, Fla.) and fire-polished. The pipette resistances ranged from 1 to 3 MΩ when the pipettes were filled with internal solution containing (in mM): 130 CsF, 20 NaCl, 2 MgCl2, 10 EGTA, 10 HEPES, pH adjusted to 7.4 with CsOH, osmolality ˜310 mmol/kg. Drugs and intervening wash-outs were applied through a linear array of flow pipes (Drummond Microcaps, 2 μL, 64-mm length). Compounds are dissolved in dimethylsulfoxide (DMSO) to make a 30 mM stock solution, which was subsequently diluted into the external solution to give final concentrations of 0.1-100 μM. At the highest (1%) concentration, DMSO inhibited the size of Na^+ current only slightly. Currents were recorded at room temperature (22-25° C.), filtered at 3 kHz with an active 8-pole Bessel filter (Frequency Devices, Haverhill, Mass.), digitized at 10-50 μs intervals, and stored using Digidata 1200 analog/digital interface with Pclamp6/Clampex software (Axon Instruments). Series resistance was cancelled typically by ˜75% when necessary.
The following voltage pulse protocols were used to assess the potency and kinetics of inhibition of the Na^+ channels by the compounds (FIG. 1). [drawing 33]
FIG. 1. Voltage pulse protocols. A. IV-curves. C. Steady-state inactivation. B. Repriming kinetics. D. Time course of binding.
Current-voltage relationship (IV-curve), protocol A, was used to report the voltage at which the maximal inward Na^+ current is achieved. This voltage was used throughout the experiment as testing voltage, Vt. The steady-state inactivation (or, availability) curve, protocol C, was used to get the voltage at which almost complete (≧95%) inactivation of Na^+ channels occurs; it served as voltage for conditioning prepulse, Vc, throughout the experiment. Protocol B reports how fast the channels recover from inactivation at hyperpolarized voltages. This permitted us to set up the duration of the hyperpolarization gap which is used in measurement of the kinetics of binding of compounds to inactivated Na^+ channels (protocol D). Channel repriming under control conditions was fast (≧90% recovery during first 5-10 ms). If a drug substantially retards the repriming process then it becomes possible (protocol D) to accurately measure the kinetics of binding of the inhibitor to inactivated channels as well as the steady-state affinity (k+ and Ki). To estimate k+ values the reduction in peak currents in successive trials with varying pre-pulse duration was plotted as a function of pre-pulse duration and the time constant (τ) measured by mono-exponential fit. A plot of 1/τ as a function of antagonist concentration then allowed calculating of the macroscopic binding rates of the antagonists. To determine Ki values the partial inhibition curves measured by fractional responses in steady-state were fitted with the logistic equation: […]

[3] = target: T1, hSkM1 isoform of Na+ channels (Homo sapiens, UniProt P35499); assay: Electrophysiological Assay 1: whole-cell patch-clamp of Na+ currents in HEK-293 cells expressing hSkM1; type: cell-based; details: HEK-293 cells stably expressing hSkM1; concentration that produces half maximal inhibition
T1 construct: expressed in transfected cells
Method: Cell preparation: HEK-293 cells stably expressing the hSkM1 isoform of Na^+ channels (generous gift from Dr. A. L. George, Vanderbilt University Medical School) were cultured using standard techniques, as described previously (Verdoorn, T. A, et al., Neuron 4:919-928 (1990)). For electrophysiology, cells were plated onto 35 mm Petri dishes (pre-coated with poly-D-lysine) at a density of 1:40 on the day of re-seeding from confluent cultures. Our experience has been that cells are suitable for recordings for 2-3 days after plating.
Patch-clamp recordings of voltage-sensitive Na^+ currents: Whole-cell voltage-clamp recordings were made using conventional patch-clamp techniques (Hamill et al., Pfluegers Arch. 391:85-100 (1981)) with an Axopatch 200A amplifier (Axon Instruments, Foster City, Calif.). […] The recording chamber was continuously superfused with the external solution (150 mM NaCl, 5.4 mM KCl, 1.8 mM CaCl2, 1 mM MgCl2, 10 mM HEPES, 10 mM glucose, pH 7.4 (NaOH)) at a speed of about 1 mL/min. Recording pipettes were pulled from thick-walled capillaries (WPI, Sarasota, Fla.) and fire-polished. The pipette resistances ranged from 1 to 3 MΩ when the pipettes were filled with internal solution containing (in mM): 110 CsF, 10 NaCl, 5 MgCl2, 11 EGTA, 10 HEPES, pH adjusted to 7.4 with CsOH. Osmolality was set with a difference of 15-20 mmol/kg between external and internal solutions (lower inside the cell). Drugs and intervening wash-outs were applied through a linear array of flow pipes (Drummond Microcaps, 2 μL, 64-mm length). Compounds are dissolved in dimethylsulfoxide (DMSO) to make a 30 mM stock solution, which was subsequently diluted into the external solution to give final concentrations of 0.1-100 μM. At the highest (1%) concentration, DMSO inhibited the size of Na^+ current only slightly. Currents were recorded at room temperature (22-25° C.), filtered at 5 kHz with an active 8-pole Bessel filter (Frequency Devices, Haverhill, Mass.), digitized at 10-50 μs intervals, and stored using Digidata 1200 analog/digital interface with Pclamp6/Clampex software (Axon Instruments). Series resistance was cancelled typically by ˜75% when necessary. The inhibitory potency of drugs was assessed by measuring reductions in the peak amplitude of Na^+ currents induced by increasing concentrations of compounds tested. Na^+ currents were elicited by stepping membrane voltage from holding potentials over the range −100 mV to −50 mV, to a pulse potential of −10 mV. The test pulse duration was 5-10 msec, repeated at a frequency≦1 Hz. Concentration-inhibition curves were fitted with equation 1:
I/Icontrol=1/(1+([compound]/IC50)) Eq. 1
where Icontrol is the maximal Na^+ current in the absence of antagonist, [compound] is the drug concentration, and IC50 is the concentration of compound that produces half maximal inhibition.
The apparent antagonist dissociation constant (Kd) of this compound for inactivated sodium channels is ˜8 nM.
The Ki (the concentration of a compound that produces half maximal inhibition) value for 3-[4-(4-fluorophenoxy)phenyl]-1H-pyrazole-1-carboxamide and other tested compounds are presented in Table 2.

T1 sequence (P35499 whole entry, canonical isoform): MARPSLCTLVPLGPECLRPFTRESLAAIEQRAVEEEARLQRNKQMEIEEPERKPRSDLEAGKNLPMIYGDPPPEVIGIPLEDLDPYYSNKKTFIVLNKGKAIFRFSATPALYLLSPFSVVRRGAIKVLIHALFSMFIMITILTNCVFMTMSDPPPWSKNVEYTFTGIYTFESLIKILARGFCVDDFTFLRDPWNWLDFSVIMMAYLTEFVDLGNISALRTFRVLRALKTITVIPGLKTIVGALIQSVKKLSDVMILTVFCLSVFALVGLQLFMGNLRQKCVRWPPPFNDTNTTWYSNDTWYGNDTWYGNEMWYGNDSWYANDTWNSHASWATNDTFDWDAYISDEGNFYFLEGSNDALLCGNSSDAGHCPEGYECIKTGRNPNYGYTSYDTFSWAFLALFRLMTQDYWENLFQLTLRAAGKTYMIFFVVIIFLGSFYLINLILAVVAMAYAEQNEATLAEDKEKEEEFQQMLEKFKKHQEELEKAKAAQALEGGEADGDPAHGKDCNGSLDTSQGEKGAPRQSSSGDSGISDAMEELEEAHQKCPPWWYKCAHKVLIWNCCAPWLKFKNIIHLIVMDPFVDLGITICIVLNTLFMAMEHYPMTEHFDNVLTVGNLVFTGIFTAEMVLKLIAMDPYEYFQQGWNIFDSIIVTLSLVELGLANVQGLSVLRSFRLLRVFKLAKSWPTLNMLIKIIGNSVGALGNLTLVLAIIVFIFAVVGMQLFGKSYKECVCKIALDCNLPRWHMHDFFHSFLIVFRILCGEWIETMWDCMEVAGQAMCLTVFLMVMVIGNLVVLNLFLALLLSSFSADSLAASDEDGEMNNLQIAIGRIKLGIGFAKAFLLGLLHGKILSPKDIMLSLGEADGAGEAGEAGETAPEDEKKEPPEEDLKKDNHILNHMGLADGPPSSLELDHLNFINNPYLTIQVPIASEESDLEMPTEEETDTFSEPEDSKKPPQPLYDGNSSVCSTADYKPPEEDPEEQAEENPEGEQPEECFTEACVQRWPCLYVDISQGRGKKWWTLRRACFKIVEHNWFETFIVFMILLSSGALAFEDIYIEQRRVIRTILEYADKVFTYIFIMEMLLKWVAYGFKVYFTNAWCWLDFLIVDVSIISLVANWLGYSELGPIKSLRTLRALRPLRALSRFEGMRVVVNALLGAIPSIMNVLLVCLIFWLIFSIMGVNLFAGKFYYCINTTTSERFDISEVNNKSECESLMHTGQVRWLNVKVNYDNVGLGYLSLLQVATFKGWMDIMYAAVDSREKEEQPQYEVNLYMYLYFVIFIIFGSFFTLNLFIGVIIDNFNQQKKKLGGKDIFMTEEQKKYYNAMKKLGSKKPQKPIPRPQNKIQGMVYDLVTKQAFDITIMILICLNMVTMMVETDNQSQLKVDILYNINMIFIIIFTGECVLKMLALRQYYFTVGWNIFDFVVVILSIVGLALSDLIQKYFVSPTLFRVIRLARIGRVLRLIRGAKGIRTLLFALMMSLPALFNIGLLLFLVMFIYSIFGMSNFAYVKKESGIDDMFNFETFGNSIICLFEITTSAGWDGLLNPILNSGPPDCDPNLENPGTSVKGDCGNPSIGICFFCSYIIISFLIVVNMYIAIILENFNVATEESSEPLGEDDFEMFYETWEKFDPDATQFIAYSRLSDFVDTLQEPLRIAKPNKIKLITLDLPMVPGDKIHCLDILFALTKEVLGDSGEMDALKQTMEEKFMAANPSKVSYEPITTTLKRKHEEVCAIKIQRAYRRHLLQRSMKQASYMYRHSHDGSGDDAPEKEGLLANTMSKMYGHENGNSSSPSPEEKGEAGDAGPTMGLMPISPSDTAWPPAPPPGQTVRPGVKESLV

melting point [°C]	Ki [2] [nM]	Ki [3] [nM]	Compound	ED50 [1] [mg/kg]
192 to 195	–	–	Fc1ccc(Oc2ccc(-c3c[nH]cn3)cc2)c(F)c1 (as salt: hydrochloride) [4-[4-(2,4-Difluorophenoxy)phenyl]-1H-imidazole]	–
122 to 124	–	–	O=C(Cn1nccc1-c1ccc(Oc2ccc(F)cc2)cc1)N1CCOCC1 [1-Morpholin-4-yl-2-{5-[4-(4-fluorophenoxy)phenyl]-pyrazol-1-yl}-ethanone]	4.4
–	1560	–	NC(=O)Cn1nccc1-c1ccc(Oc2ccc(F)cc2)cc1 [2-{5-[4-(4-Fluorophenoxy)phenyl]-pyrazol-1-yl}-acetamide]	2.6
230 to 232	–	–	Cl.FC(F)(F)c1ccc(Oc2ccc(-c3c[nH]cn3)cc2)cc1 [4-(4-(4-Trifluoromethylphenoxy)phenyl]-1H-imidazole, hydrochloride salt]	7.7
142 to 144	–	80	CSc1cc(-c2ccc(Oc3ccccc3)cc2)nn1C(N)=O [5-Methylthio-3-(4-phenoxyphenyl)-1H-pyrazole-1-carboxamide]	–

More lines, now with the values behind:

Compound	melting point [°C]	Ki [2] [nM]	Ki [3] [nM]	ED50 [1] [mg/kg]
Fc1ccc(Oc2ccc(-c3ccn(-c4ncccn4)n3)cc2)cc1 [2-{3-[4-(4-Fluorophenoxy)phenyl]-pyrazol-1-yl}-pyrimidine]	–	420	–	4.7
NC(=O)n1ccc(-c2ccc(Oc3ccc(Cl)cc3F)cc2)n1 [3-[4-(4-Chloro-2-fluorophenoxy)phenyl]-1H-pyrazole-1-carhoxamide]	150 to 151	–	3	3.1
NC(=O)n1ccc(-c2ccc(Oc3ccc(C(F)(F)F)cc3)cc2)n1 [3-[4-(4-Trifluoromethylphenoxy)phenyl]-1H-pyrazole-1-carboxamide]	131 to 132	–	–	3.9
Fc1ccc(Oc2ccc(-c3c[nH]cn3)cc2)c(F)c1 [4-[4-(2,4-Difluorophenoxy)phenyl]-1H-imidazole]	144 to 148	1030	–	–
Cl.Fc1cc(Cl)ccc1Oc1ccc(-c2c[nH]cn2)cc1 [4-[4-(4-Chloro-2-fluorophenoxy)phenyl]-1H-imidazole, hydrochloride salt]	216 to 220	120	–	10
